Key:
[1] = parallel artificial membrane permeability assay (PAMPA) of semaglutide formulations with permeation promoters; assay type: in vitro ADME; conditions: Skin PAMPA, permeation promoters at the same concentration of 0.25% (w/v%)
Description: 1.1. Test objective: to investigate the differences in in-vitro permeability of semaglutide having a concentration of 10 mM in pH7.4 […] buffer by using the PAMPA method after the addition of different types and proportions of permeation promoters. An appropriate amount of 10 mM semaglutide mother liquor was weighed and placed in a liquid phase injection vial, and different permeation promoters were weighed and added correspondingly according to types and proportions listed in Table 1; a magnetic stirrer was added; the magnetic stirrer was turned on to adjust a rotation speed to 650 rpm; and the temperature of the magnetic stirrer was kept at 37°C, followed by stirring for later use. Table 1 • Donor wells solutions were solutions of Formulations 1-20; • An acceptor wells solution was pH 7.4 Prisma HT buffer. • 1) PAMPA membrane hydration: a Hydration Solution (Pion) was prepared (used at room temperature); donor wells of a PAMPA plate were carefully removed; 200 μl of Hydration Solution was added to each well, and whether each empty surface forms a curved surface due to surface tension was observed; and acceptor wells of the PAMPA plate were covered carefully, while air bubbles were avoided on contact surfaces. The Hydration Solution was kept moist and hydrated overnight, and the hydrated membrane will appear translucent or have white spots. […]

[2] = Compatibility/stability study: HPLC main peak purity and impurities after storage in the dark at 40°C and 50°C; assay type: physicochemical; conditions: result in words
Description: The changes in semaglutide content and impurities in a semaglutide solution, semaglutide+different permeation promoter solutions, and semaglutide+different bacteriostatic agent solutions were determined under HPLC conditions in Example 1 after being stored in the dark for 10 days (10 D) at 40°C and 50°C, and the results were shown in Table 7.
The definitions of the hydrophilic impurities 1 and 2 and the hydrophobic impurity in Table 7 were shown in HPLC chromatograms of Formulations C1 to C4 shown in FIGS. 1-4 determined at 50°C on Day 10.
As a control, main peak intensities of compositions J and K in CN116942612A at 50°C on Day 5 were determined using the same method, both of which were below 95%.

CCCCCCCCCCCCO[C@@H]1O[C@H](CO)[C@@H](O[C@H]2O[C@H](CO)[C@@H](O)[C@H](O)[C@H]2O)[C@H](O)[C@H]1O [dodecyl-β-D-maltoside]
permeation promoting effect [1]: better permeation promoting effects

CCCCCCCCCCCC(=O)OCCOCCOCCOCCOCCOCCOCCOCCOCCOCCOCCOCCOCCOCCOCCOCCOCCOCCOCCOCCOCC(OCCOCCOCCOCCOCCOCCOCCOCCOCCOCCOCCOCCOCCOCCOCCOCCOCCOCCOCCOCCO)C1OCC(OCCOCCOCCOCCOCCOCCOCCOCCOCCOCCOCCOCCOCCOCCOCCOCCOCCOCCOCCOCCO)C1OCCOCCOCCOCCOCCOCCOCCOCCOCCOCCOCCOCCOCCOCCOCCOCCOCCOCCOCCOCCO (stereo not shown) [polysorbate-20]
permeation promoting effect [1]: better permeation promoting effects

benzalkonium chloride
protective effect on semaglutide (inhibited degradation) [2]: protective effect on semaglutide

polyoxyethylene (8) dodecyl ether
permeation promoting effect [1]: better permeation promoting effects

From patent EP4799637A1, “NASAL ADMINISTRATION COMPOSITION CONTAINING GLP-1 RECEPTOR AGONIST, AND PREPARATION METHOD THEREFOR AND USE THEREOF” (Zhongshan Wanhan Pharmaceutical Co., Ltd., priority 2023, dated 2025)
